Values joined by “and” are separate entries in the source; they are usually repeats but may differ in a detail not shown here. Equal entries are not always repeated. Inconclusive results and toxic doses are left out. How the source made its calls: active means survival T/C of 150% or more; inactive means T/C below 125% in these data. Numbered stars: 1 amine (or outer) side, 2 acyl side, 3 side chain; on linkers, the order of the positions; unused ones are H or OH. Bridge positions count the residues as written; N and C are the ends. Square brackets hold non-standard residues; d marks the D form. Peptide text beside a SMILES is read from it. I, II: the chains in the order shown. Actinocin(1to9) = Cc1c2oc3c(C)ccc(C(=O)[*:2])c3nc-2c(C(=O)[*:1])c(N)c1=O; NMeV = CN[CH](C(=O)O)C(C)C; Sar = CNCC(=O)O
Tested on: BDF1 mice, B16 melanoma ip, median survival T/C
Assay: NCI In Vivo Anticancer Drug Screen. Data for tumor model B16 Melanoma (intraperitoneal) in B6D2F1 (BDF1) mice
Conditions: endpoint: median survival time, higher = longer survival
Summary of the method: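 The ratio T/C compares compound-treated mice with vehicle-treated controls, using survival or tumor size as the endpoint in a transplantable tumor model.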

[1] = dose: 12.5 mg/kg/injection, schedule: Q01DX009 (ip), vehicle: Klucel (hydroxypropylcellulose) (HPC)
[2] = dose: 25.0 mg/kg/injection, schedule: Q01DX009 (ip), vehicle: Klucel (hydroxypropylcellulose) (HPC)
[3] = dose: 12.5 mg/kg/injection, schedule: Q01DX009 (ip), vehicle: saline
[4] = dose: 25.0 mg/kg/injection, schedule: Q01DX009 (ip), vehicle: saline

Measured: T/C

O=C(O)CC(NC(=O)CP(=O)(O)O)C(=O)O (centres undefined)
86 % of control and 201 % of control: dose: 600.0 mg/kg/injection, schedule: Q04DX003 (ip), vehicle: saline
active: dose: 15.6 mg/kg/injection, schedule: Q03HX024 (ip), vehicle: saline 175 % of control | dose: 21.9 mg/kg/injection, schedule: Q01DX009 (ip), vehicle: saline 150 % of control | dose: 25.9 mg/kg/injection, schedule: Q03HX024 (ip), vehicle: saline 176 % of control | dose: 31.1 mg/kg/injection, schedule: Q01DX009 (ip), vehicle: saline 156 % of control | dose: 32.9 mg/kg/injection, schedule: Q01DX009 (ip), vehicle: saline 164 % of control | dose: 43.2 mg/kg/injection, schedule: Q03HX024 (ip), vehicle: saline 182 % of control | dose: 49.4 mg/kg/injection, schedule: Q01DX009 (ip), vehicle: saline 174 % of control | dose: 51.8 mg/kg/injection, schedule: Q01DX009 (ip), vehicle: saline 177 % of control | dose: 74.1 mg/kg/injection, schedule: Q01DX009 (ip), vehicle: saline 182 % of control | dose: 77.8 mg/kg/injection, schedule: Q04DX003 (ip), vehicle: saline 153 % of control | dose: 79.0 mg/kg/injection, schedule: Q01DX009 (ip), vehicle: saline 170 % of control | dose: 79.0 mg/kg/injection, schedule: Q01DX009 (sc), vehicle: saline 165 % of control | dose: 86.4 mg/kg/injection, schedule: Q01DX004 (ip), vehicle: saline 173 % of control | dose: 86.4 mg/kg/injection, schedule: Q01DX009 (ip), vehicle: saline 177 % of control | dose: 111.0 mg/kg/injection, schedule: Q01DX009 (ip), vehicle: saline 201 % of control | dose: 118.0 mg/kg/injection, schedule: Q01DX009 (ip), vehicle: saline 185 % of control | dose: 118.0 mg/kg/injection, schedule: Q01DX009 (sc), vehicle: saline 176 % of control | dose: 125.0 mg/kg/injection, schedule: Q04DX003 (ip), vehicle: saline 162 % of control | dose: 130.0 mg/kg/injection, schedule: Q04DX003 (ip), vehicle: saline 168 % of control and 171 % of control | dose: 144.0 mg/kg/injection, schedule: Q01DX004 (ip), vehicle: saline 178 % of control | dose: 144.0 mg/kg/injection, schedule: Q01DX009 (ip), vehicle: saline 199 % of control | dose: 160.0 mg/kg/injection, schedule: Q01DX005 (ip), vehicle: saline 159 % of control | dose: 167.0 mg/kg/injection, schedule: Q01DX009 (ip), vehicle: saline 204 % of control | dose: 177.0 mg/kg/injection, schedule: Q01DX009 (ip), vehicle: saline 177 % of control | dose: 177.0 mg/kg/injection, schedule: Q01DX009 (sc), vehicle: saline 178 % of control | dose: 216.0 mg/kg/injection, schedule: Q04DX003 (ip), vehicle: saline 161 % of control and 201 % of control | dose: 240.0 mg/kg/injection, schedule: Q01DX004 (ip), vehicle: saline 183 % of control | dose: 250.0 mg/kg/injection, schedule: Q01DX009 (ip), vehicle: saline 190 % of control | dose: 250.0 mg/kg/injection, schedule: Q04DX003 (ip), vehicle: saline 182 % of control | dose: 320.0 mg/kg/injection, schedule: Q01DX005 (ip), vehicle: saline 175 % of control | dose: 324.0 mg/kg/injection, schedule: Q01DX001 (ip), vehicle: saline 168 % of control | dose: 360.0 mg/kg/injection, schedule: Q04DX003 (ip), vehicle: saline 171 % of control and 227 % of control | dose: 500.0 mg/kg/injection, schedule: Q04DX003 (ip), vehicle: saline 197 % of control | dose: 540.0 mg/kg/injection, schedule: Q01DX001 (ip), vehicle: saline 174 % of control | dose: 900.0 mg/kg/injection, schedule: Q01DX001 (ip), vehicle: saline 154 % of control and 190 % of control | dose: 900.0 mg/kg/injection, schedule: Q01DX001 (sc), vehicle: saline 154 % of control | dose: 1350.0 mg/kg/injection, schedule: Q01DX001 (ip), vehicle: saline 150 % of control
inactive: dose: 10.0 mg/kg/injection, schedule: Q01DX005 (ip), vehicle: saline 112 % of control | dose: 20.0 mg/kg/injection, schedule: Q01DX005 (ip), vehicle: saline 123 % of control | dose: 117.0 mg/kg/injection, schedule: Q04DX003 (oral), vehicle: saline 106 % of control | dose: 118.0 mg/kg/injection, schedule: Q01DX009 (oral), vehicle: saline 100 % of control | dose: 194.0 mg/kg/injection, schedule: Q04DX003 (oral), vehicle: saline 110 % of control | dose: 324.0 mg/kg/injection, schedule: Q04DX003 (oral), vehicle: saline 95 % of control | dose: 400.0 mg/kg/injection, schedule: Q01DX001 (oral), vehicle: saline 97 % of control | dose: 400.0 mg/kg/injection, schedule: Q01DX004 (ip), vehicle: saline 46 % of control | dose: 540.0 mg/kg/injection, schedule: Q04DX003 (oral), vehicle: saline 110 % of control | dose: 900.0 mg/kg/injection, schedule: Q01DX001 (oral), vehicle: saline 100 % of control | dose: 1350.0 mg/kg/injection, schedule: Q01DX001 (sc), vehicle: saline 120 % of control | dose: 1500.0 mg/kg/injection, schedule: Q01DX001 (ip), vehicle: saline 119 % of control

NC(=O)NC1CCCCCC1
inactive: dose: 100.0 mg/kg/injection, schedule: Q01DX009 (ip), vehicle: saline with Tween-80 108 % of control | dose: 200.0 mg/kg/injection, schedule: Q01DX009 (ip), vehicle: saline with Tween-80 104 % of control | dose: 400.0 mg/kg/injection, schedule: Q01DX009 (ip), vehicle: saline with Tween-80 95 % of control

CC[C@@]1(O)C(=O)OCc2c1cc1n(c2=O)Cc2cc3c(OC)cccc3nc2-1
active: dose: 0.39 mg/kg/injection, schedule: Q01DX009 (ip), vehicle: other 150 % of control | dose: 0.79 mg/kg/injection, schedule: Q01DX009 (ip), vehicle: other 161 % of control | dose: 2.0 mg/kg/injection, schedule: Q01DX009 (ip), vehicle: Klucel (hydroxypropylcellulose) (HPC) 175 % of control | dose: 4.0 mg/kg/injection, schedule: Q01DX009 (ip), vehicle: carboxymethylcellulose (CMC) 172 % of control

C=COC(=O)CCCCCCCCCCCCCCCCC
inactive: dose: 20.0 mg/kg/injection, schedule: Q01DX009 (ip), vehicle: Klucel (hydroxypropylcellulose) (HPC) 94 % of control | dose: 40.0 mg/kg/injection, schedule: Q01DX009 (ip), vehicle: Klucel (hydroxypropylcellulose) (HPC) 94 % of control | dose: 80.0 mg/kg/injection, schedule: Q01DX009 (ip), vehicle: Klucel (hydroxypropylcellulose) (HPC) 92 % of control

Cc1c2oc3c(C)ccc(C(=O)NCCN4CCCCC4)c3nc-2c(C(=O)NCCN2CCCCC2)c(N)c1=O
inactive: [1] 97 % of control | [2] 112 % of control

O=C(C1CO1)C(Cl)(Cl)Cl (centres undefined)
inactive: [3] 105 % of control | [4] 110 % of control

CCC(C)C1NC(=O)C(NC(=O)c2c3nc4c(C(=O)NC5C(=O)NC(C(C)C)C(=O)N6CCCC6C(=O)N(C)CC(=O)N(C)C(C(C)C)C(=O)OC5C)ccc(C)c4oc-3c(C)c(=O)c2N)C(C)OC(=O)C(C(C)C)N(C)C(=O)CN(C)C(=O)C2CCCN2C1=O (centres undefined) (I: TIP[Sar][NMeV] / II: TVP[Sar][NMeV]; ester I:1-I:C, II:1-II:C; linker I:N-II:N via Actinocin(1to9); configuration not given here)
inactive: dose: 0.2 mg/kg/injection, schedule: Q01DX001 (ip), vehicle: water 116 % of control | dose: 12.5 micrograms/kg/injection, schedule: Q01DX009 (ip), vehicle: water 117 % of control | dose: 25.0 micrograms/kg/injection, schedule: Q01DX009 (ip), vehicle: water 116 % of control | dose: 75.0 micrograms/kg/injection, schedule: Q04DX003 (ip), vehicle: water 119 % of control

CC1=CC(=O)N(NC(N)=O)C1=O
inactive: [3] 107 % of control | [4] 96 % of control | dose: 50.0 mg/kg/injection, schedule: Q01DX009 (ip), vehicle: saline 87 % of control

O=C(O)c1cccc2c1S(=O)(=O)c1ccccc1C2=O
inactive: dose: 75.0 mg/kg/injection, schedule: Q01DX009 (ip), vehicle: Klucel (hydroxypropylcellulose) (HPC) 100 % of control | dose: 150.0 mg/kg/injection, schedule: Q01DX009 (ip), vehicle: Klucel (hydroxypropylcellulose) (HPC) 97 % of control | dose: 300.0 mg/kg/injection, schedule: Q01DX009 (ip), vehicle: Klucel (hydroxypropylcellulose) (HPC) 100 % of control

C=CS(C=C)=NS(=O)(=O)c1ccc(C)cc1
inactive: dose: 1.56 mg/kg/injection, schedule: Q01DX009 (ip), vehicle: Klucel (hydroxypropylcellulose) (HPC) 95 % of control and 108 % of control | dose: 3.12 mg/kg/injection, schedule: Q01DX009 (ip), vehicle: Klucel (hydroxypropylcellulose) (HPC) 95 % of control and 101 % of control | dose: 6.25 mg/kg/injection, schedule: Q01DX009 (ip), vehicle: Klucel (hydroxypropylcellulose) (HPC) 97 % of control and 98 % of control | [1] 107 % of control and 110 % of control | [2] 88 % of control and 95 % of control
